Test results from US20030114441A1, “Heterocyclic anti-epileptogenic agents and methods of use thereof” (Queen's University at Kingston, priority 2001, published 2003).

Experiments:
PTZ-induced seizure = assay: Subcutaneous pentylenetetrazole (PTZ)-induced seizure model; format: in vivo, male Carworth Farms #1 mice or male Sprague-Dawley rats; set-up: key to PTZ 0.5 hr / PTZ 4 hr: — = no activity; conditions: for PTZ 0.5 hr / PTZ 4 hr: i.p. at 300, 100 and 30 mg/kg; for PTZ 0.5 hr: PTZ 0.5 hr after administration; for PTZ 4 hr: PTZ 4 hr after administration
Method: The MES and PTZ assays were performed by the Anticonvulsant Drug Development (ADD) Program in the Epilepsy Branch of the NIH (see, e.g., Stables and Kupferberg (1997) The NIH anticonvulsant Drug Development (ADD) Program: Preclinical Anticonvulsant Screening Project, Libby & Sons). All compounds were tested with either male Carworth Farms #1 mice or male Sprague-Dawley rats. Each test compound was administered via an i.p. injection at 300, 100, and 30 mg/kg. In the subcutaneous pentylenetetrazole (PTZ)-induced seizure model, seizures are induced 0.5 and 4 hrs after test compound administration by i.p. injection of PTZ (85 mg/kg in mice and 70 mg/kg in rats). Protection is defined as the inhibition of clonic spasms over a 30 min observation period.

[1] = system: pilocarpine-induced seizures; assay: Pilocarpine assay (seizure model); format: in vivo, adult male Sprague-Dawley rats; conditions: 100 mg/kg i.p., 20 min before pilocarpine hydrochloride 350 mg/kg i.p.; 30 minute observation
Method: A seizure model is performed using adult male Sprague-Dawley rats in accordance with the guidelines of the Canada Council on Animal Care and under the supervision of the Queen's University Animal Ethics Committee. This test procedure was adopted from previous work by Turski et al. (1984) Brain Res. 321:237. The test compounds are administered at 100 mg/kg by intraperitoneal (i.p.) injection. Seizures are induced 20 minutes afterwards by i.p. administration of pilocarpine hydrochloride (350 mg/kg). Protection is defined as the absence of clonic spasms over a 30 minute observation period after pilocarpine administration.

MES-induced seizure = assay: Maximal electroshock seizure test (MES); format: in vivo, male Carworth Farms #1 mice or male Sprague-Dawley rats; set-up: key to MES 0.5 hr / MES 4 hr: — = no activity; conditions: for MES 0.5 hr / MES 4 hr: i.p. at 300, 100 and 30 mg/kg; for MES 0.5 hr: stimulus 0.5 hr after administration; for MES 4 hr: stimulus 4 hr after administration
Method: The MES and PTZ assays were performed by the Anticonvulsant Drug Development (ADD) Program in the Epilepsy Branch of the NIH (see, e.g., Stables and Kupferberg (1997) The NIH anticonvulsant Drug Development (ADD) Program: Preclinical Anticonvulsant Screening Project, Libby & Sons). All compounds were tested with either male Carworth Farms #1 mice or male Sprague-Dawley rats. Each test compound was administered via an i.p. injection at 300, 100, and 30 mg/kg. For the maximal electroshock seizure test (MES), corneal electrodes primed with a drop of electrolyte solution (0.9% NaCl) are applied to the eyes of the animal and an electrical stimulus (50 mA for mice, 150 mA for rats; 60 Hz) is delivered for 0.2 seconds at 0.5 and 4.0 hours after test compound administration. The animals are restrained by hand and are released at the moment of stimulation in order to permit observation of the seizure.

[2] = system: spontaneous recurrent seizures; assay: Spontaneous recurrent seizures (SRS) model of epilepsy; format: in vivo, adult male Sprague-Dawley rat; conditions: 20 mg/kg/day i.v. for 10 day
Method: The “spontaneous recurrent seizures” (SRS) model of epilepsy is used to evaluate candidate compounds in a model for Phase 1 epileptogenesis (see, e.g., Mello, E. et al., Epilepsia (1993) 34:985; Cavalheiro, J. et al., Epilepsia (1991) 32:778). In the SRS model, an adult male Sprague-Dawley rat (c. 260 g) is given pilocarpine by injection (380 mg/kg i.p.). Within 25 minutes, the animal enters status epilepticus, which lasts for 3 hours, and then diazepam is administered to stop seizures. The rat is allowed to spontaneously recover and is given food and water ad lib. and maintained on a 12 hour/12 hour light/dusk cycle. Beginning on about day 13-15, the rats develop spontaneous recurrent seizures, which occur at the rate of about 4-5 per week. The rats are videotaped 8 hours per day 5 days per week, and the videotapes are reviewed for behavioral seizures (including head nodding, forelimb clonus, and rearing), which are counted. The animals are watched for two months, permitting evaluation of a sufficient number of seizures. An experimental compound for evaluation can be administered at either of two times: Time 1, on Day 1, after the cessation of status epilepticus but before the onset of SRS; or Time 2, on Day 30, when the rats have been experiencing SRS for about two weeks. […]

[3] = @ 100 mg, i.p., 4 hr after administration

| SMILES | PTZ 0.5 hr (PTZ-induced seizure) | PTZ 4 hr (PTZ-induced seizure) | Pilocarpine, activity in words [1] | MES 0.5 hr (MES-induced seizure) | MES 4 hr (MES-induced seizure) | further results |
| --- | --- | --- | --- | --- | --- | --- |
| COC(=O)CC(NC(C)c1ccccc1)c1ccc2ccccc2n1 (stereo not shown) | — | — | Active | — | — |  |
| O=C1NC(=O)C(c2ccccc2)(c2ccccc2)N1 [phenytoin] |  |  |  |  |  | Preventing the onset of seizures (Time 1) ([2]; Time 1 (Day 1, after status epilepticus, before onset of SRS)): ineffective; Effective at decreasing seizure frequency by 50% or more (Time 2) ([2]; Time 2 (Day 30, established SRS)): 75% |
| CC(NC(CC(=O)O)c1ccc2ccccc2n1)c1ccccc1 (stereo not shown) |  |  | Active |  |  |  |
| O=C(CC(c1ccc2ccccc2n1)N(Cc1ccccc1)Cc1ccccc1)N(Cc1ccccc1)Cc1ccccc1 (stereo not shown) | — | — | Min. Active | — | — |  |
| COC(=O)CC(Nc1ccccc1OC)c1ccc2ccccc2n1 (stereo not shown) |  |  | Active |  |  |  |
| COC(=O)CC(NC(C)c1ccccc1)c1cnc2ccccc2c1 (stereo not shown) | — | — | Min. Active | — | — |  |
| COC(=O)CC(NC(C)c1ccccc1)c1ccc2c(c1)cc(C)n2S(=O)(=O)c1ccccc1 (stereo not shown) |  |  | Active |  |  |  |
| COC(=O)CC(c1ccc2ccccc2n1)N(Cc1ccccc1)Cc1ccccc1 (stereo not shown) | — | — | Inactive | — |  | MES 4 hr, fraction of animals (MES-induced seizure; [3]): 1/3 @ 100 mg |
| NC(CC(=O)O)c1cccs1 (stereo not shown) | — | — | Active | — | — |  |
| COC(=O)CC(Nc1ccccc1OC)c1cc2ccccc2nc1Cl (stereo not shown) |  |  | Min. Active |  |  |  |
| COC(=O)CC(NC(C)c1ccccc1)c1cc2ccccc2o1 (stereo not shown) |  |  | Active | — | — | PTZ 4 hr, fraction of animals (PTZ-induced seizure; [3]): 1/5 @ 100 mg; PTZ 0.5 hr, fraction of animals (PTZ-induced seizure; @ 300 mg, i.p., 0.5 hr after administration): 2/5 @ 300 mg |
| NC(CC(=O)O)c1ccc2c(c1)OCCO2 (stereo not shown) |  |  | Min. Active |  |  |  |
